Experimental data from US20100087788A1, “Anti-infective alcohol catheter solution with chlorhexidine treated catheter” (priority 2006, published 2010).

Columns and labels:
[1] = Release kinetics of chlorhexidine from loaded catheter segments; type: physicochemical; settings: catheter segments 200 micrograms/cm
Procedure: 5Fr Catheter segments were bulk impregnated with chlorhexidine base (CHX) by soaking in an ethyl acetate solution of CHX and then evaporating the solvent. The chlorhexidine mass per unit length was determined by dissolving the catheter […] extracting the chlorhexidine. The measure mass of chlorhexidine was approximately 200 micrograms per cm. 5Fr catheter segments were similarly impregnated with chlorhexidine diacetate to a level of 200 micrograms/cm by soaking in an ethyl acetate-methanol solution followed by evaporation. These segments were used in Zone of inhibition testing and release kinetics testing.
Release kinetics measurements were performed of chlorhexidine base (CHX) and chlorhexidine diacetate (CHA) loaded catheter segments (200 micrograms/cm) in water and in 25% ethanol lock. One cm long catheter segments were placed in 10 ml of 25% ethanol lock solution. At each sampling point the eluting solution was removed and replaced with fresh solution. The amount of chlorhexidine released was measured by UV absorbance readings at 263 nm on the eluting lock solution relative to a reference curve of chlorhexidine standards prepared to known concentrations in 25% ethanol lock. Cumulative % release was calculated from the measured amount released at each time point and the quantity of chlorhexidine loaded into the catheter segments.

E. coli = assay: MBC of chlorhexidine diacetate alone and at 80% of the ethanol MIC; type: cell-based
Source text: (§1) The synergy of ethanol and chlorhexidine is illustrated in Table 2 by measurement of the minimum bacteriocidal concentration (MBC) of chlorhexidine at ethanol concentrations that are subinhibitory (80% of the ethanol minimum inhibitory concentration).

S. aureus = assay: as above; type: cell-based
Source text: as §1

[2] = test system: E. faecalis, S. aureus, E. coli; assay: Change of chlorhexidine MBC at subinhibitory ethanol (summary of Table 2); type: cell-based; settings: ethanol at 80% of the ethanol MIC
Procedure: (§2) Determinations of Minimum Inhibitory Concentration (MIC) and Minimum Bacteriocidal Concentration (MBC) were performed using standard microbiological techniques. Chlorhexidine diacetate was tested at the following μg/mL concentrations: 256, 128, 64, 32, 16, 8, 4, 2, 1, 0.5, 0.25, and 0.125. Ethanol was tested at the following percent (%) concentrations: 50, 40, 30, 25, 20, 15, 12, 10, 7, and 5. Dilutions were prepared in Cationic Adjusted Mueller Hinton Broth (CAMHB). All tests were performed in microtiter plates with a total test volume of 100 μL, including diluted antimicrobial agent and inoculum. Concentrations of antimicrobial agents were prepared at 2× concentration, and 50 μL was added to each well of a microtiter plate, to which 50 μL of inoculum of the test organism was added to give the target test concentration.
(§3) Inoculum was prepared by transfer of isolated colonies from agar plates to 10 mL of trypticase soy broth (TSB), and incubation at 37° C. for 4 hrs. Cells were subsequently centrifuged, and resuspended twice in phosphate buffered saline. The population of this bacterial suspension was determined by reading optical density at 670 nm. Final concentrations of inoculum were adjusted to a range of approximately 5×10^4 cfu/mL, using CAMHB as a diluent. Initial concentrations were verified using the Miles and Misra drop count method. […]

E. faecalis = assay: MBC of chlorhexidine diacetate alone and at 80% of the ethanol MIC; type: cell-based
Procedure: as §2, §3

[3] = Solubility of chlorhexidine salts in ethanol (100%) and water; type: physicochemical; settings: for Ethanol Solubility: ethanol (100%)
most microorganisms = settings: Sissons et al. 1996; cited from earlier work
[4] = test system: S. epidermidis ATCC 35983; settings: ethanol
Procedure: as §2
(§4) Inoculum was prepared by transfer of isolated colonies from agar plates to 10 mL of trypticase soy broth (TSB), and incubation at 37° C. for 4 hrs. Cells were subsequently centrifuged, and resuspended twice in phosphate buffered saline. The population of this bacterial suspension was determined by reading optical density at 670 nm. Final concentrations of inoculum were adjusted to a range of approximately 5×10^4 cfu/mL, using CAMHB as a diluent. Initial concentrations were verified using the Miles and Misra drop count method. To each test well of a microtiter plate, 50 μl of inoculum was added along with 50 μl of the 2× concentration of the antimicrobial agent being tested. Incubation was at 37° C. for 16 to 20 hours.
(§5) To determine MBC values, 50 μl was removed from each well showing inhibition of growth (MIC and greater). Solutions from these inhibitory concentrations of antimicrobial agent were diluted in CAMHB to concentrations where they would no longer inhibit the growth of the test organism. Recovery counts were obtained by plating aliquots of the diluted material onto TSA plate containing 5% sheep's blood, and incubating 24 hours at 37° C.

P. aeruginosa ATCC 27853 = settings: ethanol
Procedure: as §2, §4, §5

E. cloacae ATCC 13047 = settings: ethanol
Procedure: as §2, §4, §5

E. faecalis ATCC 51299 = settings: ethanol
Procedure: as §2, §4, §5

C. albicans ATCC 10231 = settings: ethanol
Procedure: as §2, §4, §5

[5] = test system: most commonly encountered infectious pathogens; settings: conclusion from Table 1
Procedure: as §2, §4, §5

E. coli ATCC 25922 = settings: ethanol
Procedure: as §2, §4, §5

S. aureus ATCC 29213 = settings: ethanol
Procedure: as §2, §4, §5

K. pneumoniae ATCC 10031 = settings: ethanol
Procedure: as §2, §4, §5

Question: Which “release of chlorhexidine from catheter into 25% ethanol lock solution, compared with chlorhexidine base (FIG. 2)” value [1] does the source give for `CC(=O)O.CC(=O)O.NC(=N\CCCCCC/N=C(N)/N=C(\N)Nc1ccc(Cl)cc1)/N=C(\N)Nc1ccc(Cl)cc1` [CHA, chlorhexidine diacetate] here?
Answer: releases faster

Question: What about the “MBC for CHA @ 80% MIC ETOH” value (E. coli; ethanol 8% (80% of MIC)) of the same compound?
Answer: 2 µg/mL

Question: And the “MBC for CHA” value (E. coli; no ethanol)?
Answer: 4 µg/mL

Question: And the “MBC for CHA @ 80% MIC ETOH” value (S. aureus; ethanol 9.6% (80% of MIC))?
Answer: 1 µg/mL

Question: What about the “MBC for CHA” value (S. aureus; no ethanol) of the same compound?
Answer: 1 to 2 µg/mL

Question: And the “drop of chlorhexidine MBC in the presence of subinhibitory ethanol concentrations” value [2]?
Answer: approximately 50%

Question: What about the “MBC for CHA @ 80% MIC ETOH” value (E. faecalis; ethanol 5.6% (80% of MIC)) of the same compound?
Answer: 4 µg/mL

Question: What about the “MBC for CHA” value (E. faecalis; no ethanol) of the same compound?
Answer: 8 µg/mL

Question: With `CCCCC(=O)O.CCCCC(=O)O.N=C(NCCCCCCNC(=N)NC(=N)Nc1ccc(Cl)cc1)NC(=N)Nc1ccc(Cl)cc1` [Valerate] as the compound, how does the “Ethanol Solubility” value [3] read?
Answer: 20 mg/mL

Question: What about the “Water Solubility” value [3] of the same compound?
Answer: 1.2 mg/mL

Question: With `CCO` [ethanol] as the compound, how does the “concentration that inhibits the growth of most microorganisms” value (most microorganisms) read?
Answer: 10%

Question: And the “concentrations generally considered bactericidal” value (most microorganisms)?
Answer: ≥ 40%

Question: What about the MBC [4] of the same compound?
Answer: 10-12%

Question: What about the MIC ([4]; CAMHB, 37° C., 16 to 20 hours) of the same compound?
Answer: 12%

Question: And the MBC (P. aeruginosa ATCC 27853)?
Answer: 12%

Question: What about the MIC (P. aeruginosa ATCC 27853; CAMHB, 37° C., 16 to 20 hours) of the same compound?
Answer: 7%

Question: And the MBC (E. cloacae ATCC 13047)?
Answer: 10%

Question: What about the MIC (E. cloacae ATCC 13047; CAMHB, 37° C., 16 to 20 hours) of the same compound?
Answer: 7%

Question: And the MBC (E. faecalis ATCC 51299)?
Answer: 10%

Question: What about the MIC (E. faecalis ATCC 51299; CAMHB, 37° C., 16 to 20 hours) of the same compound?
Answer: 7%

Question: And the MBC (C. albicans ATCC 10231)?
Answer: 10%

Question: And the MIC (C. albicans ATCC 10231; CAMHB, 37° C., 16 to 20 hours)?
Answer: 7%

Question: And the “ethanol concentration at which the solution will not inhibit microbial growth” value [5]?
Answer: below 7%

Question: What about the “ethanol lock concentration cidal towards most commonly encountered infectious pathogens” value [5] of the same compound?
Answer: above 25%

Question: What about the MBC (E. coli ATCC 25922) of the same compound?
Answer: 15%

Question: What about the MIC (E. coli ATCC 25922; CAMHB, 37° C., 16 to 20 hours) of the same compound?
Answer: 10%

Question: And the MBC (S. aureus ATCC 29213)?
Answer: 25%

Question: And the MIC (S. aureus ATCC 29213; CAMHB, 37° C., 16 to 20 hours)?
Answer: 12%

Question: What about the MBC (K. pneumoniae ATCC 10031) of the same compound?
Answer: 25%

Question: And the MIC (K. pneumoniae ATCC 10031; CAMHB, 37° C., 16 to 20 hours)?
Answer: 10%

Question: For Laurate, which “Ethanol Solubility” value [3] is on record?
Answer: 200 mg/mL

Question: And the “Water Solubility” value [3]?
Answer: 0.01 mg/mL
